Read-outs that look alike come from different tables or passages of the source.
Columns and labels:
[1] = tested on: HIV-1 intasome (vDNA•IN•LEDGF/p75); test: in vitro HIV-1 concerted integration onto mononucleosome; format: biochemical
[2] = tested on: PFV intasome/nucleosome complex; test: AlphaLISA PFV intasome/nucleosome interaction assay; format: binding, prototype foamy virus (PFV); human mononucleosome
Description: AlphaLISA is a technology particularly suitable for bimolecular inhibitor screening assays using protein-protein interactions with purified recombinant proteins. The AlphaLISA assay development was performed in 96-well 12 area Alphaplate (reference 6052340, PerkinElmer, Waltham, MA, USA) with a final reaction volume of 40 µL. Cross-titration experiments of biotinylated MN (0–50 nM) against DIG-intasome (0–100 nM) were carried out to establish optimal assay concentrations for the binding assay. Ten microliters of each protein were diluted in the binding buffer 50 mM BisTris-propane pH 7, 100 mM NaCl, 0.1% (v/v) Tween-20, 0.1% (w/v) BSA, and 1 mM dithiothreitol. The plate was incubated at RT for 2 h in rotation. Ten microliters of anti-DIG acceptor beads (PerkinElmer, reference AL113) were then added, and after 1 h of incubation at RT with rotation, 10 µL of streptavidin […] (Perkin Elmer, reference 6760002) was mixed to the wells. This established a final concentration of 20 µg/mL for each bead. The plate was then incubated for 1 h at RT in the dark before the AlphaLISA signal was detected using an EnSpire Multimode Plate Reader (PerkinElmer). Negative control with binding buffer or only with one of the complexes was used to control the assay quality. Data were analyzed with GraphPad Prism 5.01 software. To evaluate tolerance for DMSO, the assay was performed as described above with an addition of 0.15–20% (v/v) of DMSO during the binding step. For the competition experiment, increasing concentrations of untagged intasome were titrated out in the 1-nM DIG-intasome/biotinylated nucleosome interaction assay.
For the AlphaLISA screening assay with the NIH OncoSET library, the binding conditions were optimized for use in 384-well plate (Optiplate, reference 6007290, PerkinElmer) with the same concentrations for complexes and beads in a final reaction volume of 20.5 µL (2.5% DMSO final concentration). The screening was first carried out with 25 µM of each compound pre-incubated for 1 h with 1 nM intasome/nucleosome complexes. Compounds were selected as inducing at least 50% decrease of the AlphaLISA signal control condition, and their inhibitory effect was further tested using dose-response curves. For compounds validation, counter select assay was performed using a short DNA fragment carrying a biotin and a DIG tag on each side. The AlphaLISA signal was monitoring using increasing concentrations of the double-tagged DNA, and the selected compounds were tested in optimized conditions at 10 µM. Any compound that causes decreased signal means that it interferes with AlphaLISA readout, and therefore, it is not relevant to this assay.

PFV intasome = PFV intasome (Human spumaretrovirus, UniProt P14350); test: biochemical; format: biochemical, prototype foamy virus (PFV); set-up: Briefly, PFV IN and its cognate vDNA were mixed, and assembled intasomes were purified by size exclusion chromatography; octamers produced in E. coli; conditions: for inhibition of PFV integration into MNs: 30 nM FITC PFV intasome, MN, drugs 0–25 µM
Description: Integration assays using purified assembled intasomes were performed as followed: either 100 ng of naked DNA or 100 ng of DNA assembled on 100 ng of histone octamers (24 nM final concentration) was incubated with 30 nM final concentration of purified intasome in 100 mM NaCl, 20 mM BTP pH 7, 12.5 mM MgSO4 (for PFV intasome), or in 20 mM HEPES pH 7, 7.5% DMSO, 8% PEG, 10 mM MgCl2, 20 µM ZnCl2, 100 mM NaCl, 5 mM DTT final concentration (for HIV-1 intasome) in a final volume of 40 µL. The mix was then incubated at 37°C for 15 min and 1 h, respectively. Then, reaction was stopped by the addition of 5.5 µL of a mix containing 5% SDS and 0.25 M EDTA and deproteinized with proteinase K (Promega) for 1 h at 37°C. Nucleic acids were then precipitated with 150 µL of ethanol overnight at −20°C. Samples were then spun at top speed for 1 h at 4°C, and the pellets were dried and then resuspended with DNA loading buffer. Integration products were separated on an 8% native polyacrylamide gel.

histone tails = biological target: histone tails; set-up: method as in PMID 26503405; conditions: ref [18]; cited from earlier work
mononucleosome (MN) = test: histone eviction assay (EMSA / SDS-PAGE); format: biochemical, human; conditions: 10 µM or increasing concentrations
[3] = tested on: Vpr-BLaM containing NL-4.3 or NL-4.3Δenv-VSV-G viruses; format: cell-based, HIV-1
HIV-1 subtype B virus [4] = test: HIV-1 infection assay in PBMCs (HIV-1 RNA in supernatant); format: cell-based; conditions: Human immunodeficiency virus 1, PBMC, read-out: IC50 of HIV-1 replication
Description: PBMCs were isolated from blood samples using Ficoll-Hypaque gradient centrifugation. After separation, PBMCs were pelleted by centrifugation. […] Next, PBMCs were harvested (7 min, 400 × g) and resuspended in 500 µL culture medium. […] Then, the medium was removed, and 10 mL of RPMI 1640 was added to wash the cells. The cells were harvested at low speed (400 × g), and the washed-cell pellet was resuspended in 2 mL of supplemented RPMI 1640. The cell suspension was added to wells of a 24-well tissue culture plate and incubated at 37°C. HIV-1 RNA from plasma samples was determined at 24, 48, and 72 h postinfection.

HIV-1 subtype B virus [5] = test: qPCR quantification of viral DNA populations in infected PBMCs; format: cell-based
HIV-1 intasome = conditions: MN assembled onto natural DO2 sequence

Row | SMILES | IC50 ([1]; Table 4, title: in vitro HIV-1 integration inhibition, read-out: Integration IC50) | inhibition of intasome/nucleosome association in AS ([2]; increasing drug concentrations) | inhibition of PFV integration into MNs (PFV intasome) | Kd (histone tails) | histone eviction / MN dissociation (mononucleosome (MN)) | effect on viral fusion / entry [3] | IC50 (HIV-1 subtype B virus [4]) | IC50 ([1]; preformed HIV-1 intasome, MN, read-out: IC50 of in vitro HIV-1 integration) | IC50 ([1]; preformed HIV-1 intasome, native MN (601), read-out: IC50 of in vitro HIV-1 integration) | cytotoxicity (PBMC cells) | effect on total viral DNA (HIV-1 subtype B virus [5]; 20 h postinfection) | effect on integrated DNA (HIV-1 subtype B virus [5]; infected PBMCs) | effect on two-LTR circles (HIV-1 subtype B virus [5]; infected PBMCs) | decrease in the AS signal ([2]; OncoSET screen, 25 µM drug, 1 nM of each partner) | IC50 ([2]; intasome/nucleosome AS assay, increasing drug concentrations, Fig. 3E) | effect on the intasome/nucleosome AS signal ([2]; retest at 10 µM, MN) | IC50 (PFV intasome) | inhibition of HIV-1 integration into DO2 nucleosome (HIV-1 intasome)
1 | O=S(=O)(O)c1cc2c(O)c(c1)Cc1cc(S(=O)(=O)O)cc(c1O)Cc1cc(S(=O)(=O)O)cc(c1O)Cc1cc(S(=O)(=O)O)cc(c1O)C2 [CA1] | > 1000 nM | less efficient in inhibiting the association | inefficient in our assay | 17.8 to 20.4 µM |  |  |  |  |  |  |  |  |  |  |  |  |  | 
2 | COc1cccc2c1C(=O)c1c(O)c3c(c(O)c1C2=O)C[C@@](O)(C(=O)CO)C[C@@H]3O[C@H]1C[C@H](N)[C@H](O)[C@H](C)O1 [Doxorubicin, doxorubicin] |  |  | able to inhibit PFV integration into MNs |  | full shift of the nucleosomal DNA in addition to a strong MN dissociation | did not affect this early entry step | 2 to 20 nM | ~300 nM | < 1000 nM | poor cytotoxicity | no effect | decreased | increased | at least 50% | 870 ± 40 nM | strong inhibitory effect | < 1000 nM | as efficient in inhibiting the HIV-1 integration into DO2 nucleosome than onto the 601 nucleosome
